Reference: patent publication US7585895B2, “Therapeutic substituted cyclopentanes” (Allergan, Inc., priority 2005, dated 2009)

Columns and labels:
[1] = target: T1, hEP4/Gqs5 (Homo sapiens, UniProt P35408); assay: FLIPR calcium signal, EP4; type: cell-based; conditions: HEK-293(EBNA), read-out: Ca2+ Signal-EC50 (nM) EP4
T1 construct: expressed in transfected cells
Procedure: (§1) HEK-293(EBNA) cells, stably expressing one type or subtype of recombinant human prostaglandin receptors (prostaglandin receptors expressed: hDP/Gqs5; hEP1; hEP2/Gqs5; hEP3A/Gqi5; hEP4/Gqs5; hFP; hIP; hTP), were cultured in 100 mm culture dishes in high-glucose DMEM medium containing 10% fetal bovine serum, 2 mM 1-glutamine, 250 μg/ml geneticin (G418) and 200 μg/ml hygromycin B as selection markers, and 100 units/ml penicillin G, 100 μg/ml streptomycin and 0.25 μg/ml amphotericin B.
(§2) Cells were seeded at a density of 5×10^4 cells per well in Biocoat® Poly-D-lysine-coated black-wall, clear-bottom 96-well plates (Becton-Dickinson) and allowed to attach overnight in an incubator at 37° C. Cells were then washed two times with HBSS-HEPES buffer (Hanks Balanced Salt Solution without bicarbonate and phenol red, 20 mM HEPES, pH 7.4) using a Denley Cellwash plate washer (Labsystems). After 45 minutes of dye-loading in the dark, using the calcium-sensitive dye Fluo-4 AM at a final concentration of 2 μM, plates were washed four times with HBSS-HEPES buffer to remove excess dye leaving 100 μl in each well. Plates were re-equilibrated to 37° C. for a few minutes.
(§3) Cells were excited with an Argon laser at 488 nm, and emission was measured through a 510-570 nm bandwidth emission filter (FLIPR™, Molecular Devices, Sunnyvale, Calif.). Drug solution was added in a 50 μl volume to each well to give the desired final concentration. The peak increase in fluorescence intensity was recorded for each well. On each plate, four wells each served as negative (HBSS-HEPES buffer) and positive controls (standard agonists: BW245C (hDP); PGE2 (HEP1; hEP2/Gqs5; hEP3A/Gqi5; hEP4/Gqs5); PGF2α (hFP); carbacyclin (hIP); U-46619 (hTP), depending on receptor). The peak fluorescence change in each drug-containing well was then expressed relative to the controls.
(§4) Compounds were tested in a high-throughput (HTS) or concentration-response (CoRe) format. In the HTS format, forty-four compounds per plate were examined in duplicates at a concentration of 10^−5 M. To generate concentration-response curves, four compounds per plate were tested in duplicates in a concentration range between 10^−5 and 10^−11 M. The duplicate values were averaged. In either, HTS or CoRe format each compound was tested on at least 3 separate plates using cells from different passages to give an n≧3.

[2] = target: T2, EP4 receptors (Homo sapiens, UniProt P35408); assay: Radioligand binding, [3H]PGE2, EP4 (Ki); conditions: HEK-293 cells stably expressing EP4, [3H]PGE2
T2 construct: expressed in transfected cells; membrane pellet
Procedure: (§5) HEK-293 cells stably expressing the human or feline FP receptor, or EP1, EP2, or EP4 receptors were washed with TME buffer, scraped from the bottom of the flasks, and homogenized for 30 sec using a Brinkman PT 10/35 polytron. TME buffer was added to achieve a final 40 ml volume in the centrifuge tubes (the composition of TME is 100 mM TRIS base, 20 mM MgCl2, […]; 10N HCl is added to achieve a pH of 7.4).
(§6) The cell homogenate was centrifuged at 19000 r.p.m. for 20 min at 4° C using a Beckman Ti-60 rotor. The resultant pellet was resuspended in TME buffer to give a final 1 mg/ml protein concentration, as determined by Biorad assay. Radioligand binding competition assays vs. [^3H-]17-phenyl PGF2α. (5 nM) were performed in a 100 μl volume for 60 min. Binding reactions were started by adding plasma membrane fraction. The reaction was terminated by the addition of 4 ml ice-cold TRIS-HCl buffer and rapid filtration through glass fiber GF/B filters using a Brandel cell harvester. The filters were washed 3 times with ice-cold buffer and oven dried for one hour.
(§7) [^3H-] PGE2 (specific activity 180 Ci mmol) was used as the radioligand for EP receptors. [^3H] 17-phenyl PGF2α, was employed for FP receptor binding studies. Binding studies employing EP1, EP2, EP4 and FP receptors were performed in duplicate in at least three separate experiments. A 200 μl assay volume was used. Incubations were for 60 min at 25° C. and were terminated by the addition of 4 ml of ice-cold 50 mM TRIS-HCl, followed by rapid filtration through Whatman GF/B filters and three additional 4 ml washes in a cell harvester (Brandel). Competition studies were performed using a final concentration of 5 nM [^3H]-PGE2, or 5 nM [^3H] 17-phenyl PGF2αand non-specific binding determined with 10^−5M of unlabeled PGE2, or 17-phenyl PGF2α, according to receptor subtype studied.

[3] = target: T3, hEP2/Gqs5 (Homo sapiens, UniProt P43116); assay: FLIPR calcium signal, EP2; type: cell-based; conditions: HEK-293(EBNA), value outside parentheses, read-out: Ca2+ Signal-EC50 (nM) EP2
T3 construct: expressed in transfected cells
Procedure: as §1, §2, §3, §4

[4] = target: T4, EP2 (Homo sapiens, UniProt P43116); assay: cAMP assay, HEK-EBNA cells expressing EP2; type: cell-based; parameters: expressed in transfected cells; host or cells: HEK-EBNA; conditions: value in parentheses in EP2 column, read-out: EP2 EC50 (nM), measurement of cAMP (data in parentheses)
Procedure: A 384-well drug plate was prepared to contain 6 test compounds, PGE2 and cAMP in 16 serial dilutions in triplicate, using a Biomek station. HEK-EBNA cells expressing a target PG receptor subtype (EP2 or EP4) were suspended in a stimulation buffer (HBSS, 0.1% BSA, 0.5 mM IBMX and 5 mM HEPES, pH 7.4) in a density of 10^4 cells/5 μl. The reaction was initiated by mixing 5 μL drug dilutions with 5 μl of HEK-EBNA cells in a well, carried out for 30 min at room temperature, and followed by the addition of 5 μl anti-cAMP acceptor beads in the control buffer with Tween-20 (25 mM NaCl, 0.03% Tween-20, 5 mM HEPES, pH7.4). After 30 min in the dark at room temperature, the mixtures were incubated with 15 μl biotinylated-cAMP/strepavidin donor beads in Lysis/Detection buffer (0.1% BSA, 0.3% Tween-20 and 5 mM HEPES, pH7.4) for 45 min at the room temperature. Fluorescence changes were read using a Fusion-alpha HT microplate reader.

[5] = target: T4, EP2; assay: Competition binding, [3H]PGE2, EP2 (Ki); parameters: expressed in transfected cells; membranes or whole cells; conditions: HEK 293 cells stably expressing human EP2, [3H]PGE2
Procedure: Competition binding experiments were performed in a medium containing Hank's balanced salt solution, Hepes 20 mM, pH 7.3, membranes (˜60 μg protein) or 2×10^5 cells from HEK 293 cells stably expressing human EP2 receptors, [^3H]PGE2 (10 nM) and various concentrations of test compounds in a total volume of 300 μl. Reaction mixtures were incubated at 23° C. for 60 min, and were filtered over Whatman GF/B filters under vacuum. Filters were washed three times with 5 ml ice-cold buffer containing 50 mM Tris/HCl (pH 7.3). Non-specific binding was estimated in the presence of excess unlabeled PGE2 (10 μM). Binding data fitted to the binding model for a single class of binding sites, using nonlinear regression analysis. IC50 values thus obtained were converted to Ki using the equation of Ki=(IC50/(1+[L]/KD) where [L] represents PGE2 concentration (10 nM) and KD the dissociation constant for [^3H]PGE2 at human EP2 receptors (40 nM).
as §5, §6, §7

[6] = Monkey intraocular pressure (Max. ΔIOP); type: in vivo; conditions: Primates, Conc. 0.1 g/100 mL
[7] = Dog intraocular pressure (Max. ΔIOP); type: in vivo; conditions: Canis lupus familiaris, Conc. 0.1 g/100 mL
[8] = Dog ocular hyperemia; type: in vivo; conditions: Conc. 0.1 g/100 mL

T4 sequence (P43116 whole entry): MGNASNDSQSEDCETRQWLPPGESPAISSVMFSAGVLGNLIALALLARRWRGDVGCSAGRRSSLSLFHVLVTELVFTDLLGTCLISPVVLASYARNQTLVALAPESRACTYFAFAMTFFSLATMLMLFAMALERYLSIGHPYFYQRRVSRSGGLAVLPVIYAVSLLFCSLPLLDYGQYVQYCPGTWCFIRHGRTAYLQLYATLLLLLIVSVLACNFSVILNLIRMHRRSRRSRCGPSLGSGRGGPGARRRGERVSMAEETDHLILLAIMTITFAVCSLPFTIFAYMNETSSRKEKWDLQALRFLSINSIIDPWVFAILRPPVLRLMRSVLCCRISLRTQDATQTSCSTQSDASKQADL
T3 sequence (P43116 whole entry): as above
T1 sequence (P35408 whole entry): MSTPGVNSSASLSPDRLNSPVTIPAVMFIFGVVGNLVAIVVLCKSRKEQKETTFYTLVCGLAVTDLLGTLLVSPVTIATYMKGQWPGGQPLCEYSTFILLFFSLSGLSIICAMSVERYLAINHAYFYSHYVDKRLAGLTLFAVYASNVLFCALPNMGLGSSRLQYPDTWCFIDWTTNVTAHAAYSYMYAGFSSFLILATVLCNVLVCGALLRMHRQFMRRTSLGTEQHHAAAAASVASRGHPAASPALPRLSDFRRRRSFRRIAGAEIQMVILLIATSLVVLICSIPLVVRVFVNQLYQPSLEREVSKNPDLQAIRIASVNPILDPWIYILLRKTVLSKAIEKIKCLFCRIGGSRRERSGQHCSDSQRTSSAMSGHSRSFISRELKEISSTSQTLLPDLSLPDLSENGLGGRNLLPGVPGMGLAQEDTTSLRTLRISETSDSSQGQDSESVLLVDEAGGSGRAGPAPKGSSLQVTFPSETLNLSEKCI
T2 sequence (P35408 whole entry): as above

Row | EC50 [1] [nM] | Ki [2] [nM] | EC50 [3] [nM] | EC50 [4] [nM] | Ki [5] [nM] | DOG Max. hpyeremia [8] | Compound | change in vivo at 1000 µg/mL [6] [%] | change in vivo at 1000 µg/mL [7] [%]
1 | > 10000 | 6290 | > 10000 | 815 | 1050 | – | CC(C)(C)CCCC(O)c1ccc([C@@H]2[C@@H](C/C=C\CCCC(=O)O)[C@H](Cl)C[C@H]2O)cc1 (stereo partly drawn) [Entry 19, (Z)-7-{(1R,2S,3R,5R)-5-Chloro-3-hydroxy-2-[4-(1-hydroxy-5,5-dimethyl-hexyl)-phenyl]-cyclopentyl}-hept-5-enoic acid] | – | –
2 | – | – | – | – | – | 0.5 | CCCCCCc1ccc([C@@H]2[C@@H](C/C=C\CCCC(=O)OC(C)C)[C@H](Cl)C[C@H]2O)cc1 [compound 7] | 21 | 20
